The subject of this experiment is female Sprague Daley rats. Description: Cyclophosphamide-induced overactive bladder and cystitis (rats). The experiment is classed as in vivo, rat. The text has this:
12. Cyclophosphamide-Induced Overactive Bladder and Cystitis (Rats)
The aim of this study was to test the efficacy of Compound Examples on overactive bladder as well as on interstitial cystitis and bladder pain syndrome in cyclophosphamide-treated rats.
The experimental setup is adapted to a previous described protocol (Lecci A et al, Br J Pharmacol 130: 331-38, 2000).
Strong presence and target induction of BDKRB1 in comparison to BDKRB2 has been verified by gene expression analysis in bladders removed from rats after cyclophosphamide (100 mg/kg and 150 mg/kg i.p.) induction in contrast to bladders of naïve, untreated rats. Immunohistochemistry confirmed the presence of BDKRB1 in bladders of rats after model induction, too.
Briefly, female Sprague Daley rats (˜200 g) were housed under normal conditions for laboratory rats in a 12:12-h light:dark cycle. Rats have been weighed, the tested Compound Examples were dissolved in relevant vehicle (e.g. DMSO/Water) (5/95) (v/v) and have been administrated by oral gavage in different concentrations one hour before application of cyclophosphamide (150 mg/kg) by i.p. injection. Additional 1.5 hours after cyclophosphamide administration each rat was transferred to a metabolic cage and voiding frequency has been recorded for the next 15 hours. Total amount of urine (ml) was collected via a plastic tube attached to the metabolic cages. The urine collecting tube was connected to a weight-sensitive sensor and a pressure transducer connected via an amplifier (ADIstruments) to the data acquisition software program (LabChart, ADInstruments) and a computer. […] At the end of the experiment rats have been weighed and killed under isoflurane anaesthesia and bladders have been removed and weighed. The bladders' wet weight was normalized to 100 g of body weight of each rat and analysis has been performed using GraphPad Prism 7 program.

With `O=C(O)c1cc(NC(=O)C2(c3ccc(C(F)(F)F)cc3F)CC2)ccc1-c1cnn(C2CCC2)c1` [Example 3, 2-(1-Cyclobutyl-1H-pyrazol-4-yl)-5-[({1-[2-fluoro-4-(trifluoromethyl)phenyl]cyclopropyl}carbonyl)amino]benzoic acid], the “bladder weight normalized to 100 g of body weight” value (60 mg/kg, compared to vehicle treatment, FIG. 11) was “significantly reduced”. Moreover, the number of micturitions/hour result (preventive single gavage 15 mg & 60 mg/kg, cyclophosphamide 150 mg/kg i.p., FIG. 9) is listed as “efficacy on reducing”. Further, the “AUC during the plateau phase of the micturition (4-10 hours after transfer to metabolic cages)” value (preventive single gavage, both tested dosages 15 mg & 60 mg/kg, FIG. 10) is listed as “significantly reduced”.

The values are drawn from US12023319B2, “Carboxylic acid aromatic amides” (priority 2016, dated 2024).
